Laboratory results reported in publication PMC11190223, “Identification of sulfakinin receptor regulating feeding behavior and hemolymph trehalose homeostasis in the silkworm, Bombyx mori” (Scientific Reports, 2024).
Entries after “also recorded” stand apart in the source; their conditions may differ. Each block holds one molecule with its values, some of them ahead of it. Where no end group is shown, it is not given here. [ ]: non-standard residue; d: D form. sY = N[C@@H](Cc1ccc(OS(=O)(=O)O)cc1)C(=O)O

How the values were obtained:
[1] = target: BNGR-A9; assay: CRE-driven luciferase reporter assay, BNGR-A9; format: cell-based, Bombyx mori; details: for EC50 / Activation of BNGR-A9 (CRE-driven luciferase activity): 4 h, at least three independent experiments; for EC50: dose-response; for Activation of BNGR-A9 (CRE-driven luciferase activity): 1 μM peptide, with or without forskolin (5 μM)
Source text: (§1) The entire coding region of BNGR-A9 (NM_001134272.1) was obtained by PCR and subsequently cloned into pEGFP-N1 and pCMV-Flag vectors using the primers listed in Table S1. The Flag-BNGR-A9 construct was generated for functional assays, including CRE-luciferase, calcium mobilization, and ERK phosphorylation assays, while BNGR-A9-EGFP was created for receptor visualization purposes. Additionally, for expression in the BmN cell system, the BNGR-A9 gene was inserted into the pIZT/V5-His vector. All constructs were validated by DNA sequencing.
(§2) HEK293 cells were cultured with Dulbecco’s Modified Eagle’s Medium (Gibco, NY, USA) supplied with 10% Fetal bovine serum (Gibco, NY, USA) in a 37 °C humidified incubator containing 5% CO2. BmN cells were maintained in TC 100 insect medium (AppliChem, Darmstadt, Germany) supplied with 10% Fetal bovine serum in a 28 °C incubator. Both HEK293 and BmN cells were transfected with X-tremeGENE (Roche, Mannheim, Germany) according to the manufacturer’s instruction.
HEK293 and BmN cells were transfected with the different Bombyx receptors (Flag-BNGR-A9, -A24, -A32, or A33 for HEK293 cells, and pIZT-BNGR-A9, -A24, -A32, or A33 for BmN cells) along with the corresponding CRE-reporter plasmid. When cell confluence reached 90–95%, they were treated with various concentrations of Bombyx mori neuropeptides, with or without forskolin. Following a 4-h incubation period, cells were lysed, and luciferase activities were determined using a firefly luciferase kit (Beyotime, Shanghai, China).
(§3) Data analysis was conducted using GraphPad Prism (San Diego, CA), with results presented as mean ± SEM. Statistical significance was assessed through Student’s t-test or two-way ANOVA with multiple comparisons, with p values below 0.05 denoted as significant (*p < 0.05, **p < 0.01, ***p < 0.001). Dose–response curves were generated via non-linear curve fitting. Adobe Photoshop was used to process images, ensuring uniform brightness and contrast settings across all conditions. All images and data provided represent findings from a minimum of three independent experiments.

[2] = system: BNGR-A9; assay: Fura-2 AM-based Ca^2+ mobilization assay, BNGR-A9; format: cell-based, Bombyx mori; details: for Effect of Gαq/PLC inhibitor on BmsSK-triggered Ca^2+ mobilization: FR900359 1 μM or U73122 5 μM
Source text: as §1, §2
To monitor the changes of intracellular calcium, Fura-2 AM (Dojindo, Kumamoto, Japan) was utilized as the calcium indicator, following the methodology outlined in a previous study. Briefly, HEK293 cells stably expressing Flag-BNGR-A9 were exposed to various concentrations of Bombyx mori neuropeptides and measured using a fluorescence spectrometer (Tecan Infinite 200 PRO). Calcium levels were determined by the ratio of fluorescence excitation at 340 nm to that at 380 nm. If necessary, cells were pre-treated with U73122, FR900359, or KT5720 for 30 min prior to the initiation of the experiment. For assays involving BmN cells expressing pIZT-BNGR-A9, the procedures were conducted at 28 °C, and HBSS was replaced with HBM (Hepes-Buffered Medium: 140 mM NaCl, 5 mM KCl, 1 mM MgCl2, 1.2 mM Na2HPO4, 5 mM NaHCO3, 10 mM glucose, and 20 mM HEPES–NaOH, CaCl2 (1 mM), pH 6.2).
as §3

[3] = system: BNGR-A9; assay: cAMP ELISA in BNGR-A9-expressing HEK293 cells; format: cell-based, Bombyx mori; details: 1 μM, 15 min, IBMX pretreatment (300 μM, 1 h)
Method: 1. Measurement of cAMP accumulation
Cells were seeded in 24-well plates and incubated overnight. Prior to treatment, cells
were pre-treated with the phosphodiesterase inhibitor IBMX (300 μM) for 1 hour.
Subsequently, cells were treated with different Bombyx neuropeptides for 15 minutes.
The reaction was terminated by removing the medium, followed by the addition of
ice-cold PBS and a single wash. Cell lysis was performed, and cAMP formation was
assessed using a competitive binding technique based on an enzyme-linked
immunosorbent assay (ELISA) (Parameter cAMP assay, R&D, Minneapolis, USA)
following the manufacturer's instructions. The results were expressed as the fold
change in cAMP concentration compared to the control concentration in the
2. Determination of Glucose of hemolymph
Silkworm larvae were anesthetized by cooling on ice, after which hemolymph was
collected using a micropipette from an incision made at the abdominal leg.
Approximately 5 mg of phenylthiourea (to achieve a final concentration of 2.5% w/v)
was added to the hemolymph in a 1.5 ml Eppendorf tube to inhibit clotting.
Hemolymph samples from 10 insects were then centrifuged at 12,000 rpm for 10
minutes at 4 °C to sediment any particulates. The glucose concentration in the
hemolymph was determined using a glucose oxidase-peroxidase kit (Shanghai […]
by stimulation with 1μM BmnsSK or BmsSK for 15 min, and the cAMP level was determined […]

[4] = system: BNGR-A9; assay: IP3 ELISA in BNGR-A9-expressing HEK293 cells; format: cell-based, Bombyx mori; details: 1 μM, 1 h
Method: Figure 6 Bombyx sulfated-sulfakinin mediated activation of BNGR-A9 via Gαq signaling pathway. (A and B) Effects of Gαq inhibitor FR900359 (1 μM) on the CRE-driven luciferase activities in BNGR-A9 expressing HEK293 (A) and BmN (B) cells. BNGR-A9 stable transfected cells were pretreated with FR900359 (1 μM) for 30 min and challenged with 100 nM BmsSK for 4 h. (C) Accumulation of IP3 in HEK293 cells expressing BNGR-A9 in response to Bombyx neuropeptides was assessed. Cells were pre-treated with serum-free DMEM for 1 h, followed by stimulation with 1 μM of the indicated Bombyx neuropeptides for 1 h. The level of IP3 in the supernatant was then determined using the IP3 immunoassay detection kit. (D, E) Effects of Gαq/PLC inhibitors on Flag-BNGR-A9 mediated increase of intracellular Ca^2+ level. Flag-BNGR-A9 expressing HEK293 (D) and BmN (E) cells were pretreated with Gαq inhibitorFR900359 (1 μM), U73122 (5 μM) for 30 min, and incubated with Fura-2 AM for 30 min, followed by challenging with 100 nM BmsSK. (F, G) effects of protein kinase A (PKA) inhibitor KT5720 on BmsSK initiated Ca^2+ in Flag-BNGR-A9-expressing cells. […] After 30 min incubation with Fura-2 AM, the cells were treated with 100 nM BmsSK, and detected with a fluorescence spectrometer. […] Data were analyzed by using a Student’s t-test (*p < 0.05; **p < 0.01). […]

[5] = system: DSK-R1 (CCKLR-17D3); details: cited from earlier work
Source text: Insect SKs mediate their effects via G protein-coupled receptors (GPCRs) located on the cell surface membrane. The Drosophila SK receptor (DSK-R1, also known as CCKLR-17D3) emerged as the first cloned and characterized receptor for insect SKs, displaying high affinity for tyrosine-sulfated SK (sSK) and low affinity for nonsulfated SK (nsSK)[21]. Another receptor, CCKLR-17D1, identified in Drosophila, exclusively responds to sSKs, underscoring the critical role of the sulfated tyrosine residue in SKs for receptor interaction and activity. This specificity for sSKs was also observed in the b ...

[6] = system: ERK phosphorylation in silkworm brains; assay: ERK phosphorylation (western blot), silkworm larval brains ex vivo; design: species or system Bombyx mori; details: FR900359 1 μM, 30 min; 100 nM BmsSK; silkworm larval brains
Method: HEK293 cells with Flag-BNGR-A9 were exposed to 100 nM BmsSK for different durations and then lysed using RIPA buffer (Beyotime, China). For ex vivo assays, brains from 5th instar silkworm larvae were treated with BmsSK (100 nM) for 1, 2, or 8 h, either with a pre-treatment of Gαq inhibitor FR900359 for 30 min or without it. After treatment, samples were lysed, homogenized, and their protein concentrations were determined with a BCA protein kit (Takara, Japan). For western blot analysis, equal amounts of protein lysate were used. Protein expression was analyzed using specific primary antibodies: rabbit monoclonal antibodies for total and phosphorylated ERK from Cell Signaling Technology (MA, USA).

[7] = target: T1, BNGR-A9 expressed in BmN cells (pIZT-BNGR-A9) (Bombyx mori) (UniProt B3XXM2)
T1 sequence: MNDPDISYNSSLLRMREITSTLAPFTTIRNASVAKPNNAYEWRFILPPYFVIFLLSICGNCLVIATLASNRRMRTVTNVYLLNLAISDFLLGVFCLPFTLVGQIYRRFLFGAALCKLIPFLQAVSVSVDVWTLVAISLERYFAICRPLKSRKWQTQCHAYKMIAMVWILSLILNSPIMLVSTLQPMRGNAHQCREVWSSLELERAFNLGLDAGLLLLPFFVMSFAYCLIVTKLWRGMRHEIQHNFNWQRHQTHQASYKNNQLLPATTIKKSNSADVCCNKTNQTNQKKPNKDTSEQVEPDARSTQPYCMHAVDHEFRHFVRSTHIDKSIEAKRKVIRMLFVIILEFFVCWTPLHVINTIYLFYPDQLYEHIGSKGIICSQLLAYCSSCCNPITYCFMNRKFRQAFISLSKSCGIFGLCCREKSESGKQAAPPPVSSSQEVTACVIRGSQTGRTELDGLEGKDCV

[8] = target: T2, Flag-BNGR-A9 (Bombyx mori neuropeptide G protein-coupled receptor A9) expressed in HEK293 cells (Bombyx mori) (UniProt B3XXM2)
T2 sequence: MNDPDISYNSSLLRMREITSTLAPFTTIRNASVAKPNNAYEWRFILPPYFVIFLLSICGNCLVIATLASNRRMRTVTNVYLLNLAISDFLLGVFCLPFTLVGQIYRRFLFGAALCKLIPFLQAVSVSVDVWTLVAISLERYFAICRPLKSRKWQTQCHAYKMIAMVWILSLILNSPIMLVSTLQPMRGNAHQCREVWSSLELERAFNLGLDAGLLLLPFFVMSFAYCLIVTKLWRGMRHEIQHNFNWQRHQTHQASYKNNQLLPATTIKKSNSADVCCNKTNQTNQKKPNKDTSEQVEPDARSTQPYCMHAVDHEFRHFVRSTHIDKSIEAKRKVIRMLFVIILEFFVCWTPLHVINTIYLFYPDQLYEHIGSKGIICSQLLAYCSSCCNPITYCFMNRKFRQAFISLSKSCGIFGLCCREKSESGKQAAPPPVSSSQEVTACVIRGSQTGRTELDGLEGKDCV

[9] = CRE-driven luciferase, HEK293 and BmN cells
[10] = 30 min pretreatment, 100 nM BmsSK, HEK293 and BmN cells

Molecule: GDDTFDD^8YGHLRF-NH2 [BmnsSK, Bombyx mori Non-sulfated-sulfakinin, synthetic; nonsulfated version of GDDTFDD^8YGHLRF-NH2]
- EC50 ([1]; BmN cells stably expressing BNGR-A9): 125 nM
- Activation efficacy relative to BmsSK [1, 9]: less than 30%
- Agonist type at BNGR-A9 [1, 9]: partial agonist
- Activation of BNGR-A9 (CRE-driven luciferase activity) ([1]; HEK293 and BmN cells): could activate BNGR-A9
- EC50 ([1]; HEK293 cells stably expressing BNGR-A9): 119 nM
- Ca^2+ response ([2]; 1 μM peptide, Fura-2 AM, BNGR-A9-expressing HEK293 and BmN cells, three independent experiments): triggered responses in BNGR-A9-expressing cells
- Intracellular cAMP level [3]: remained unchanged
- Intracellular IP3 level [4]: significant elevation

Molecule: COc1ccc2c(c1)CC[C@@H]1[C@@H]2CC[C@]2(C)[C@@H](NCCCCCCN3C(=O)C=CC3=O)CC[C@@H]12 [U73122, reference compound]
- Effect of Gαq/PLC inhibitor on BmsSK-triggered Ca^2+ mobilization [2, 10]: completely blocked

Molecule: CCCCCCOC(=O)[C@]1(O)C[C@@H]2O[C@@]1(C)n1c3ccccc3c3c4c(c5c6ccccc6n2c5c31)C(=O)NC4 [KT5720, reference compound]
- Effect of PKA inhibitor on BmsSK-induced Ca^2+ response ([2]; KT5720 10 μM, 30 min pretreatment, 100 nM BmsSK, HEK293 and BmN cells): did not affect

Molecule: nsSK: nonsulfated SK, on Drosophila SK receptor (GDDTFDDYGHLRF-NH2)
- Affinity for DSK-R1 [5]: low affinity

Molecule: neuropeptide F [reference compound]
- Activation of BNGR-A9 (CRE-driven luciferase activity) ([1]; HEK293 and BmN cells): did not significantly activate

Molecule: sSK: tyrosine-sulfated SK, on Drosophila SK receptor (GDDTFDD[sY]GHLRF-NH2; N-terminus assumed; SMILES CC(C)C[C@H](NC(=O)[C@H](Cc1c[nH]cn1)NC(=O)CNC(=O)[C@H](Cc1ccc(OS(=O)(=O)O)cc1)NC(=O)[C@H](CC(=O)O)NC(=O)[C@H](CC(=O)O)NC(=O)[C@H](Cc1ccccc1)NC(=O)[C@@H](NC(=O)[C@H](CC(=O)O)NC(=O)[C@H](CC(=O)O)NC(=O)CN)[C@@H](C)O)C(=O)N[C@@H](CCCNC(=N)N)C(=O)N[C@@H](Cc1ccccc1)C(N)=O)
- Affinity for DSK-R1 [5]: high affinity

Molecule: FR900359 [reference compound]
- Effect of Gαq/PLC inhibitor on BmsSK-triggered Ca^2+ mobilization [2, 10]: completely blocked; also recorded: completely inhibited
- Effect of inhibitor on BmsSK-induced ERK phosphorylation [6]: inhibited

- CRE-driven luciferase reporter, activation efficacy relative to BmsSK, BmN cells [7]: < 30 % of BmsSK
- CRE-driven luciferase reporter, dose-response, BmN cells stably expressing BNGR-A9 [7]: 125 nM
- CRE-driven luciferase reporter, activation efficacy relative to BmsSK, HEK293 cells [8]: < 30 % of BmsSK
- CRE-driven luciferase reporter, dose-response, HEK293 cells stably expressing BNGR-A9 [8]: 119 nM
Molecule: GDDTFDDYGHLRF-NH2 [Bombyx mori Non-sulfated-sulfakinin]
